Assay results taken from the NIST ThermoML archive (doi:10.1016/j.jct.2018.02.013).

Columns and labels:
[1] = wn = mass fraction of the nth substance listed; conditions: 101 kPa, Liquid, w2 = 0.1668; for mass density: Vibrating tube method; for thermal conductivity: transient hot wire; for viscosity: Cone and plate viscometry; for electrical conductivity: Direct current cell with electrodes
[2] = molar heat capacity at constant pressure; wn = mass fraction of the nth substance listed; conditions: 101 kPa, Liquid, Small sample (50 mg) DSC, w2 = 0.1668

CCCC(=O)[O-].CCCCCCCCCCCCCC[P+](CCCCCC)(CCCCCC)CCCCCC [trihexyl(tetradecyl)phosphonium butyrate] + O
Conditions	electrical conductivity [S/m]	mass density [kg/m3]	molar heat capacity at constant pressure [J/K/mol]	thermal conductivity [W/m/K]	viscosity [mPa·s]
[1], 298.15 K	–	907.8	–	0.189	–
[1], 298.2 K	–	–	–	–	61.46
[1], 302.4 K	0.11	–	–	–	–
[1], 303.15 K	–	904.6	–	–	–
[1], 303.2 K	–	–	–	–	48.17
[1], 303.9 K	0.118	–	–	–	–
[1], 307.87 K	–	–	–	0.188	–
[1], 308.2 K	–	–	–	–	38.54
[1], 308.4 K	0.14	–	–	–	–
[1], 313.15 K	–	898.3	–	–	–
[1], 313.2 K	0.168	–	–	–	31.4
[1], 317.99 K	–	–	–	0.1859	–
[1], 318.2 K	–	–	–	–	25.96
[1], 318.8 K	0.205	–	–	–	–
[1], 323.15 K	–	891.9	–	–	–
[1], 323.2 K	0.235	–	–	–	21.94
[1], 327.77 K	–	–	–	0.1848	–
[1], 328.2 K	–	–	–	–	18.8
[1], 328.4 K	0.277	–	–	–	–
[1], 333.15 K	–	885	–	–	–
[1], 333.2 K	–	–	–	–	16.05
[1], 333.4 K	0.322	–	–	–	–
[1], 338.18 K	–	–	–	0.1828	–
[1], 338.2 K	–	–	–	–	13.85
[1], 338.8 K	0.38	–	–	–	–
[1], 343.15 K	–	877.8	–	–	–
[1], 343.2 K	0.423	–	–	–	11.94
[1], 347.9 K	–	–	–	0.1818	–
[1], 348.2 K	–	–	–	–	10.37
[1], 349.7 K	0.499	–	–	–	–
[1], 353.15 K	–	870.5	–	–	–
[1], 353.2 K	–	–	–	–	9.056
[1], 358.2 K	–	–	–	0.1808	8.136
[1], 363.15 K	–	863.9	–	–	–
[1], 363.2 K	–	–	–	–	7.26
[1], 368.2 K	–	–	–	–	7.063
[2], 298.15 K	–	–	316.94	–	–
[2], 303.15 K	–	–	319.46	–	–
[2], 308.15 K	–	–	321.6	–	–
[2], 313.15 K	–	–	324.22	–	–
[2], 318.15 K	–	–	327.2	–	–
[2], 323.15 K	–	–	330.19	–	–
[2], 328.15 K	–	–	333.45	–	–
[2], 333.15 K	–	–	336.44	–	–
[2], 338.15 K	–	–	340.64	–	–
[2], 343.15 K	–	–	344.65	–	–
[2], 348.15 K	–	–	348.29	–	–
[2], 353.15 K	–	–	351.74	–	–
[2], 358.15 K	–	–	356.22	–	–
[2], 363.15 K	–	–	360.42	–	–
